We go through one molecule from US9981043B2, “Analgesic conjugates” (priority 2013, dated 2018).

The structures appear in SMILES notation. Where “and” joins values, the source holds several entries; their conditions need not be identical. Equal values may be shown once. Entries after “also recorded” stand apart in the source; their conditions may differ.

Common to all, as to format: in vivo
Data set [1] relates to control mice. The data set can be described thus: Radiant tail flick antinociception, control (not pretreated) mice. Here is the method:
(§1) Compounds were dissolved in 10% DMSO and then diluted to less than 1% DMSO in the test solutions. […] Compounds were administered in a 5-μl volume in conscious mice, either i.c.v. (Haley T J & McCormick W G, Br J Pharmacol Chemother, 1957, 12(1), 12-15) or i.t. (Hylden J L K & Wilcox G L, Eur. J. Pharmacol., 1980, 67(2-3), 313-316). Peak times were determined by comparing the percent maximal possible effect (% MPE) at 5, 10, 20 and 60 minutes after injection.
(§2) The tail flick assay is used first to test for antinociception as described by D'Amour and Smith (D'AMOUR FE & SMITH DL (1941) J. Pharmacol. Exp. Ther. 72(1):74-79) and modified by Dewey et al. (Dewey W L, Harris L S, Howes J F, & Nuite JA (1970) J. Pharmacol. Exp. Ther. 175(2):435-442). For the measurement of the tail-flick latency, mice are wrapped in a light cloth and held gently in one hand with the tail positioned in the apparatus (Tail Flick Analgesia Meter, Columbus Instruments, Columbus, Ohio) for radiant heat stimulus. The tail-flick response is elicited by applying radiant heat to the dorsal side of the tail. The intensity of the heat is set so that the mouse flicks its tail within 2 to 3 seconds. The test latency is measured before drug treatment (control) and again after the drug treatment (test) at the peak time of the compound; a 10 second maximum cut-off time is used to prevent damage to the tail. Antinociception is quantified according to the Harris L S & Pierson A K, J. Pharmacol. Exp. Ther., 1964, 143(2):141-148, as the percent maximal possible effect (% MPE), which is calculated as: % MPE=(Test−Control/10−Control)×100.
(§3) At least three groups of four to ten mice are used for each dose response curve. ED50 values with 95% confidence intervals (C.I.) are computed with GraphPad Prism 4 by using nonlinear regression methods.

The subject of data set [2] is LPS pretreated mice. The data set can be described thus: Radiant tail flick antinociception, LPS pretreated mice. The procedure: as §1
The first group mice were pretreated with lipopolysaccaride (LPS, 1 mg/kg, i.p. from Escherichia coli 0111:B4; Sigma-Aldrich, St. Louis, Mo.) for 24 hours before testing for antinociception of compounds 2-6 (Seo Y-J, et al., Pharmacol., Biochem. Behav., 2008, 91, 121-127). This group was compared to a group without pretreatment.
as §2, §3

The subject of data set [3] is control mice. The data set can be described thus: Acute (24 hour) tolerance, tail flick, control mice. Particulars: controls. The procedure: (§4) Acute tolerance utilizing the radiant tail flick assay was measured by comparing the ED80-90 dose on day 1 to the same dose measured 24 hours later on the same mouse. For the LPS pretreated mice, no additional LPS was given to the mice for the acute tolerance test. […] However, the effect was less robust 72 hours after the initial LPS injection. Thus confirming that the acute tolerance test was accurate for the LPS pretreated mice.

Data set [4] has as its system LPS pretreated mice. Nature of the data set: Acute (24 hour) tolerance, tail flick, LPS pretreated mice. The conditions noted are these: for Tolerance: 24 hours. The procedure: as §4
In data set [5] the test system is C3H mice with bone cancer. Nature of the data set: von Frey mechanical hyperalgesia, bone cancer (fibrosarcoma) mice. Here is the method:
The mouse hind paw model of bone cancer was the third model of pain (Wacnik P W, et al., Pain Research & Management, 2000, 16, 615-637; and Wacnik P W, et al., J Neurosci, 2001, 21(23), 9355-9366). Cell Culture: National Collection of Type Cultures (NCTC) clone 2472 fibrosarcoma cells, originally derived from a connective tissue tumor in a C3H mouse, were obtained from the American Type Cell Culture Collection (Rockville, Md.). Cells were grown and maintained in accordance with standard cell culturing techniques. NCTC cells were grown to 80-90% confluence in 75 cm^2 flasks (Corning, Lowell, Mass.) in Dulbecco's Modification of Eagles Medium (Invitrogen, Carlsbad, Calif.) fortified with 10% Horse Serum and sodium bicarbonate. Cell cultures were housed in a water-jacketed incubator with 5% carbon dioxide at 37° C.
Cells were prepared for implantation by first pouring off the culture medium and washing with phosphate-buffered saline (PBS). Trypsin was added to flask and placed in incubator for 3 minutes. Upon detachment, cells were suspended in an ample amount of culture medium to terminate enzymatic activity and centrifuged for 10 min at 1000 g. Fibrosarcoma cells were re-suspended in a known amount of PBS for counting, quantified on a hemacytometer, pelleted and re-suspended in PBS. Fibrosarcoma cells were again re-suspended to a final concentration of 2×10^5 cells in 20 μl. Initially, animals were anesthetized in a plexi-glass chamber using 3% isoflurane in 3 L/min oxygen. Once each mouse was completely anesthetized, a maintenance rate of 2% isoflurane in 1.5 L/min oxygen was maintained during the short implantation procedure. Tumor cells were manually injected by boring into the calcaneus bone using a 29½ gauge needle connected to a sterile 0.3 ml insulin syringe as previously described (19). Following injection, mice were allowed to recover in cages on a heating pad. Animals showing any signs of dysfunction (e.g. problems with ambulation, lethargy or excessive bleeding) or distress where euthanized according to CO2 guidelines.
C3H mice were was placed under a clean glass cup on a wire mesh grid and allowed to acclimate for thirty minutes. Mechanical hypersensitivity was tested using a von Frey filament #3.61 (which produces a force of […]) to the plantar surface of both the left and right hind paw with enough force to cause it to bow slightly. Starting with the right hind paw, the number of positive responses out of a total of 10 applications was recorded followed by the left hind paw. Positive response was indicated by a sharp withdrawal or flinching behavior of the paw. Baseline von Frey measurements were obtained prior to treatment with CFA, tumor and saline controls. […] Subsequent measurements were taken at various time points after intrathecal (i.t.) injection of test compounds on days 3, 7, 10, 14, 17, and 21. % MPE was calculated ((Time-point value−Day# baseline)/(Day 0 baseline−day# baseline))*100 (Smeester B A, Al-Gizawiy M, & Beitz A J (2012) Evidence-Based Complementary and Alternative Medicine 2012:16). Animals with saline injection served as controls for tumor cell implantation and tumor-induced nociception. Behavioral assessments were conducted during the light cycle at approximately the same time each day. The investigator performing the von Frey testing was blinded to the animal and compound injected.
A well-established rodent hind paw model of bone cancer pain (Wacnik P W, et al., J Neurosci. 2001, 21(23), 9355-66) was to examine the effects of representative bivalent ligands on tumor-induced nociception. The inbred C3H/He line is syngeneic to the fibrosarcoma cells used in these experiments and allows these cells to grow tumors without rejection. Male C3H mice were used for all experiments. Animals were maintained on a 12 hour light/dark cycle with food and water ad libitum.
Cells were prepared for implantation by first pouring off the culture medium and washing with phosphate-buffered saline (PBS). […]

Take `Cc1cccc(C#Cc2cccc(OCCNC(=O)COCC(=O)NCCCCCNC(=O)COCC(=O)N[C@H]3CC[C@@]4(O)C5Cc6ccc(O)c7c6[C@@]4(CCN5C)[C@H]3O7)c2)n1` [Compound 4c, N-((4aS,7S,7aR,12bS)-4a,9-dihydroxy-3-methyl-2,3,4,4a,5,6,7,7a-octahydro-1H-4,12-methanobenzofuro[3,2-e]isoquinolin-7-yl)-2-((1-(3-((6-methylpyridin-2-yl)ethynyl)phenoxy)-4,8,16-trioxo-6-oxa-3,9,15-triazaheptadecan-17-yl)oxy)acetamide]: the agonist character result in the data set on control mice [1] (control mice, i.c.v.) is given as “partial agonist”. In addition, the “% MPE” value in the data set on control mice [1] (controls, i.c.v., 250 pmol/mouse) came to 71 ± 10% MPE. For the same molecule, the “ED50 (CI) i.t.” value in the data set on control mice [1] (controls, i.t., tail flick) is 38.70 pmol/mouse; in the data set with LPS pretreated mice [2] (LPS pretreated (1 mg/kg 24 hours i.p.), i.t.), < 9 fmol/mouse and 9 fmol/mouse and 8.83 fmol/mouse. Further, the “ED50 (CI) i.c.v.” value in the data set on LPS pretreated mice [2] (LPS pretreated (1 mg/kg 24 hours i.p.), i.c.v.) turned out to be 374.9 pmol/mouse. Further, the antinociception in the data set with LPS pretreated mice [2] (LPS pretreated, tail flick, dose of the acute tolerance test) was determined as 97%. Besides, the Tolerance result in the data set on control mice [3] (i.c.v.) is “No Tolerance”; in the data set on control mice [3] (i.t.), “No Tolerance”; in the data set with LPS pretreated mice [4] (i.c.v.), 24 hour tolerance; in the data set with LPS pretreated mice [4] (i.t.) it was “without tolerance; also recorded: No Tolerance”; in data set [5] (bone cancer mice, i.t.) it was “without tolerance; also recorded: absence of tolerance”. In the data set on LPS pretreated mice [4] (i.c.v., 24 hour), the “% MPE remaining in 24 hour tolerance test” value is reported as “Still was 40% MPE”. Moreover, the “duration of significant antinociception” value in data set [5] (bone cancer, PID 21, 1 nmol i.t.) stood at 12 h. In addition, in data set [5] (bone cancer, PID 21, single 10 nmol i.t.), the duration of antinociception was 24 h and > 24 h. For the same molecule, in data set [5] (bone cancer, day 21, i.t.), the ED50 i.t. is 0.01 fmol/mouse. Also, the “antinociception in tumor-bearing mice” value in data set [5] (bone cancer, i.t., beginning on PID 3) is recorded as “potent antinociception”.
